{"source": "patent US10016382B2", "about": "“Method for decreasing skeletal muscle damage and/or oxidative stress in mammals” (LONZA INC., priority 2014, dated 2018)", "key": {"Labrador Retrievers [1]": {"tested_on": "Labrador Retrievers", "test": "Time of final 15 mile endurance run, Example 1 (90 day study)", "type": "in vivo, dog", "conditions": "Ex.1, 250 mg/d; for Final run time: 15 mile run at end of 90 day study, mean ± SEM", "experimental": "Forty Labrador Retrievers were divided into two equal groups of twenty (11 males, 9 females) based on gender, body weight (“BW”), genetics, and lean mass and fed a low L-carnitine basal diet for a 90 day feeding period. The experimental dogs were fed the low L-carnitine basal for 10 days prior to the start of the study. Twenty of the Labs received 250 mg/day of L-carnitine (batch D22312) and 3.75 g of sugar and twenty of the Labs received 4 g/d of sugar. The dogs were scanned with a GE Prodigy DEXA system immediately prior to beginning of the study and the determined lean mass was utilized as a key component for helping assort the dogs equally between the control and L-carnitine group. A serum sample was obtained from each dog to determine a baseline value for blood biomarkers that were used to evaluate muscle damage and antioxidant status. The L-carnitine and control performance dogs were put through a weekly running program consisting of running sprint type shorter runs of higher intensity twice weekly (1200 yds/session increasing to 2400 yds/session over 10 wk period) and running endurance longer runs one time per wk (increasing from 5 miles/session to 10 miles per session over a 10 wk period). Each performance dog also wore the Actical activity monitor during the last endurance run. The dogs were put through a 15 mile run that included mud, water, tall grass, and swimming. The dogs were timed when they completed the course. The dogs were encouraged by kennel staff that rode along in a 4 wheel all terrain type vehicle during all of the endurance runs. […] Immediately following the 15 mile endurance run, each dog was placed in a kennel and evaluated for recovery time for body temperature (every 15 minutes for 2 hr) and heart rate (every 2 minutes for 14 minutes). Twenty four hours after test dogs ran the last 15 endurance run, post-run serum samples were taken to evaluate biomarkers for muscle damage and antioxidant status. Each test dog was also scanned with the GE Prodigy DEXA to determine body composition change that occurred during the course of the 13 wk study. Experimental Design: Forty Labrador Retrievers (labs) ranging in age from 1 to 3.5 years were incorporated into a two dietary treatment study. The two dietary treatments were based on feeding the test dogs the same low L-carnitine diet but adding 250 mg per day of L-carnitine to the L-carnitine group. Each of the L-carnitine dogs received the daily 250 mg of L-carnitine mixed with an additional 3.75 g sugar. The control dogs received 4 g of sugar each day. Twenty labs of equal gender, age, excitement level, frame size, body weight and genetic background were utilized for each of the two treatments. The labs utilized for the nutrition study were from a minimum of 6 different bitches. The lean body mass of the 40 test dogs was determined by scanning with the DEXA and the final key component utilized to assure equal groups. Prior to the start of the study, the labs were acclimated to the experimental diets for a minimum of 10 days. The labs were weighed at the beginning of the 90 day study and weighed every two weeks throughout the study. Feed consumption was determined daily by weighing feed provided and feed refusals. The quantity of food provided each dog on a daily basis was adjusted based on maintaining a minimum initial starting body weight throughout the study. […]"}, "Labrador Retrievers [2]": {"tested_on": "Labrador Retrievers", "test": "Oxygen consumption on treadmill (Oxymax open-circuit calorimeter), Example 2 part three", "type": "in vivo, dog", "experimental": "Sixteen Labrador Retrievers ranging in age from 1.5 to 3 years were fed low carnitine basal diets with and without added L-carnitine for a 37 week period that included part one and two of the study. Eight (4 male and 4 female) of the test L-carnitine dogs were each fed 3.75 g sugar and 250 mg of L-carnitine, while the other eight dogs (4 male and 4 female) were fed only 4 g of sugar each day for the experimental period. The sixteen test dogs were fed the same diet for parts one, two, and three of the study. During part three of the study, the 16 test dogs were exclusively exercised on the industry sized canine treadmill. Initial Oxymax data was developed for each of the test dogs at various times and speeds in order to determine appropriate speeds on the treadmill required to achieve maximum VO2 concentration. The dogs were run for 15 minutes at 6.5 mph to determine VO2 max. The 16 test dogs were then ran at 50% VO2 max (equivalent to 4 mph) on the treadmill for 30 minutes to determine total energy expenditure (heat production). The system used to acquire information on volume of oxygen consumption and energy expenditure was an Open-Circuit calorimeter, which employed air from the surrounding environment. A mask specially designed for dogs was used to recover the gas sample and ventilate the dog. A small sample was drawn for gas analysis and dried to assure that the readings were made in a sample that was not under the influence of water vapor air exiting the chamber. The O2 and CO2 sensors were connected to software, and instant values of O2 and CO2 were measured. The 16 test dogs (8 L-carnitine dogs, 4 male and 4 female, and 8 control dogs, 4 male and 4 female) were exercised at a warm up speed of 2 mph for 5 minutes prior to running at VO2 max for 15 minutes at 6.5 mph. The next week, the test dogs ran again at a warm up speed of 2 mph for 5 minutes and then at 50% VO2 max for 30 minutes at 4 mph. The statistical analysis for gas exchange was analyzed by a factorial design 2×2 (2 genders and 2 diet treatments) and 2×2×2 (2 genders, 2 diets, 2 speeds) at p-value<0.05. The variable maximum oxygen consumption (Max VO2) was the highest amount of oxygen consumption during the exercise time. The mean oxygen consumption (Mean VO2) was the average amount of oxygen consumption during the exercise time. Oxygen consumption was reported on a per L/kg BW/h basis."}, "[3]": {"conditions": "Ex.2 part three, 250 mg/d, females, 6.5 mph for 15 min (VO2 max)"}, "[4]": {"conditions": "Ex.2 part three, 250 mg/d, females, 50% VO2 max (4 mph, 30 min)"}, "[5]": {"conditions": "Ex.2 part three, 250 mg/d, females, average of combined speeds (4 mph and 6.5 mph)"}, "[6]": {"conditions": "combined speeds 4.0 and 6.5 (50% VO2 Max and VO2 Max), diet main effect, both genders"}, "[7]": {"conditions": "combined speeds 4.0 and 6.5 (50% VO2 Max and VO2 Max), female dogs"}, "[8]": {"conditions": "combined speeds 4.0 and 6.5 (50% VO2 Max and VO2 Max), male dogs"}, "[9]": {"conditions": "treadmill speed 4 for 30 min (50% VO2 Max), diet main effect, both genders"}, "[10]": {"conditions": "treadmill speed 4 for 30 min (50% VO2 Max), female dogs"}, "[11]": {"conditions": "treadmill speed 4 for 30 min (50% VO2 Max), male dogs"}, "[12]": {"conditions": "treadmill speed 6.5 for 15 min (VO2 Max), diet main effect, both genders"}, "[13]": {"conditions": "treadmill speed 6.5 for 15 min (VO2 Max), female dogs"}, "[14]": {"conditions": "treadmill speed 6.5 for 15 min (VO2 Max), male dogs"}}, "note": "“And” between values parts separate entries of the source, which are not always exact repeats. Identical values can stand only once.", "data": [{"molecule": "C[N+](C)(C)C[C@H](O)CC(=O)[O-]", "note": "[L-carnitine]", "values": [{"measurement": "Final run time", "setting": "Labrador Retrievers [1]; both sexes", "value": "95.84 min and 95.84 ± 1.417^A n = 19 min"}, {"measurement": "Final run time", "setting": "Labrador Retrievers [1]; females", "value": "98.50 ± 3.179", "unit": "n = 8 min"}, {"measurement": "Final run time", "setting": "Labrador Retrievers [1]; males", "value": "93.91 ± 0.4564^A n = 11 min"}, {"measurement": "15-mile timed run, minutes faster than control", "setting": "Labrador Retrievers [1]; both sexes vs control dogs", "value": 6.56, "unit": "min"}, {"measurement": "15-mile timed run, minutes faster than control", "setting": "Labrador Retrievers [1]; males vs control males", "value": 8.69, "unit": "min"}, {"measurement": "Max VO2 consumption", "setting": "Labrador Retrievers [2]; [3]", "value": 60.8, "unit": "mL/min/kg"}, {"measurement": "Mean VO2", "setting": "Labrador Retrievers [2]; [3]", "value": 3.11, "unit": "L/kg/h"}, {"measurement": "Max VO2 consumption", "setting": "Labrador Retrievers [2]; [4]", "value": 42, "unit": "mL/min/kg"}, {"measurement": "Mean VO2", "setting": "Labrador Retrievers [2]; [4]", "value": 1.99, "unit": "L/kg/h"}, {"measurement": "Maximum VO2 consumption", "setting": "Labrador Retrievers [2]; [5]", "value": 50.3, "unit": "mL/min/kg"}, {"measurement": "Mean VO2 consumption", "setting": "Labrador Retrievers [2]; [5]", "value": 41.7, "unit": "mL/min/kg"}, {"measurement": "Max VO2", "setting": "Labrador Retrievers [2]; [6]", "value": 2.80, "unit": "L/kg/h"}, {"measurement": "Mean VO2", "setting": "Labrador Retrievers [2]; [6]", "value": 2.40, "unit": "L/kg/h"}, {"measurement": "Max VO2", "setting": "Labrador Retrievers [2]; [7]", "value": 3.02, "unit": "a L/Kg/h"}, {"measurement": "Mean VO2", "setting": "Labrador Retrievers [2]; [7]", "value": 2.50, "unit": "a L/Kg/h"}, {"measurement": "Max VO2", "setting": "Labrador Retrievers [2]; [8]", "value": 2.57, "unit": "ab L/Kg/h"}, {"measurement": "Mean VO2", "setting": "Labrador Retrievers [2]; [8]", "value": 2.31, "unit": "ab L/Kg/h"}, {"measurement": "Max VO2", "setting": "Labrador Retrievers [2]; [9]", "value": 2.39, "unit": "L/kg/h"}, {"measurement": "Mean VO2", "setting": "Labrador Retrievers [2]; [9]", "value": 1.98, "unit": "L/kg/h"}, {"measurement": "Max VO2", "setting": "Labrador Retrievers [2]; [10]", "value": 2.52, "unit": "L/kg/h"}, {"measurement": "Mean VO2", "setting": "Labrador Retrievers [2]; [10]", "value": 1.99, "unit": "L/kg/h"}, {"measurement": "Max VO2", "setting": "Labrador Retrievers [2]; [11]", "value": 2.26, "unit": "L/kg/h"}, {"measurement": "Mean VO2", "setting": "Labrador Retrievers [2]; [11]", "value": 1.97, "unit": "L/kg/h"}, {"measurement": "Max VO2", "setting": "Labrador Retrievers [2]; [12]", "value": 3.27, "unit": "L/kg/h"}, {"measurement": "Mean VO2", "setting": "Labrador Retrievers [2]; [12]", "value": 2.89, "unit": "L/kg/h"}, {"measurement": "Max VO2", "setting": "Labrador Retrievers [2]; [13]", "value": 3.65, "unit": "L/kg/h"}, {"measurement": "Mean VO2", "setting": "Labrador Retrievers [2]; [13]", "value": 3.11, "unit": "L/kg/h"}, {"measurement": "Max VO2", "setting": "Labrador Retrievers [2]; [14]", "value": 2.89, "unit": "L/kg/h"}, {"measurement": "Mean VO2", "setting": "Labrador Retrievers [2]; [14]", "value": 2.66, "unit": "L/kg/h"}]}]}
